Legend:
[1] = tested on: Aβ42 produced and secreted into the medium of human neuroblastoma SKNBE2 cells; test: Cellular αlisa assay in SKNBE2 cells, Aβ42; format: cell-based; conditions: SKNBE2 cells expressing hAPP695, 18 hours incubation; for IC50: Homo sapiens, SKNBE2, 18 h, read-out: Cellular αlisa assay in SKNBE2 cells Aβ42 pIC50 (converted)
Procedure: (§1) Cellular αlisa Assay in SKNBE2 Cells In two αlisa assays the levels of Aβtotal and Aβ42 produced and secreted into the medium of human neuroblastoma SKNBE2 cells are quantified. The assay is based on the human neuroblastoma SKNBE2 expressing the wild type Amyloid Precursor Protein (hAPP695). […] Aβtotal and Aβ42 are measured by sandwich α[…] sandwich assay using biotinylated antibody AbN/25 attached to streptavidin coated beads and antibody Ab4G8 or cAb42/26 conjugated acceptor beads for the detection of Aβtotal and Aβ42 respectively. In the presence of Aβtotal or Aβ42, the beads come into close proximity. The excitation of the Donor beads provokes the release of singlet oxygen molecules that triggers a cascade of energy transfer in the Acceptor beads, resulting in light emission. Light emission is measured after 1 hour incubation (excitation at […] and emission at 615 nm). A best-fit curve is fitted by a minimum sum of squares method to the plot of % Controlmin versus compound concentration. […] [formula]

[2] = tested on: brain levels of total Aβ; test: In vivo efficacy: brain Aβtotal lowering (ELISA); design: species or system mouse; conditions: 30 mpk, sc
From the text: (§2) To determine whether acute administration of an Aβ42 peptide lowering agent would reduce Aβ peptide levels in vivo, non-transgenic rodents, e.g. mice or rats were used. Animals treated with the Aβ peptide lowering agent were examined and compared to those untreated or treated with vehicle and brain levels of soluble Aβ42 and total Aβ were quantitated by standard techniques, for example, using ELISA. Treatment periods varied from hours (h) to days and were adjusted based on the results of the Aβ42 lowering once a time course of onset of effect could be established.
(§3) A typical protocol for measuring Aβ42 lowering in vivo is shown but it is only one of many variations that could be used to optimize the levels of detectable Aβ. For example, Aβ peptide lowering compounds were formulated in 20% hydroxypropyl β cyclodextrin. The Aβ peptide lowering agents were administered as a single oral dose (p.o.) or a single subcutaneous dose (s.c.) to overnight fasted animals. After a certain time, usually 2 or 4 h (as indicated in Table 19), the animals were sacrificed and Aβ42 levels were analysed.
(§4) Blood was collected by decapitation and exsanguinations in EDTA-treated collection tubes. […] The left hemisphere was stored at −18° C. for quantitative analysis of test compound levels. […]
(§5) Mouse brains from non-transgenic animals were resuspended in 8 volumes of 0.4% DEA (diethylamine)/50 mM NaCl containing protease inhibitors (Roche-11873580001 or 04693159001) per gram of tissue, e.g. for 0.158 g brain, add 1.264 ml of 0.4% DEA. […] Nine parts of supernatant were neutralized with 1 part 0.5 M Tris-HCl pH 6.8 and used to quantify Aβtotal and Aβ42.
To quantify the amount of Aβtotal and Aβ42 in the soluble fraction of the brain homogenates, Enzyme-Linked-Immunosorbent-Assays were used. […] Following this incubation and subsequent wash steps the ELISA for Aβ42 quantification was finished by addition of Quanta Blu fluorogenic peroxidase substrate according to the manufacturer's instructions (Pierce Corp., Rockford, Ill.). A reading was performed after 10 to 15 min (excitation 320 nm/emission 420 nm). […]

[3] = tested on: brain levels of soluble Aβ42; test: In vivo efficacy: brain Aβ42 lowering (ELISA); design: species or system mouse; conditions: 30 mpk, sc
From the text: as §2, §3, §4, §5
To quantify the amount of Aβtotal and Aβ42 in the soluble fraction of the brain homogenates, Enzyme-Linked-Immunosorbent-Assays were used. […] Following this incubation and subsequent wash steps the ELISA for Aβ42 quantification was finished by addition of Quanta Blu fluorogenic peroxidase substrate according to the manufacturer's instructions (Pierce Corp., Rockford, Ill.). A reading was performed after 10 to 15 min (excitation 320 nm/emission 420 nm).

[4] = tested on: Aβtotal produced and secreted into the medium of human neuroblastoma SKNBE2 cells; test: Cellular αlisa assay in SKNBE2 cells, Aβtotal; format: cell-based; conditions: SKNBE2 cells expressing hAPP695, 18 hours incubation; for IC50: Homo sapiens, SKNBE2, 18 h, read-out: Cellular αlisa assay in SKNBE2 cells Aβtotal pIC50 (converted)
Procedure: as §1

[5] = target: T1, recombinant BACE1 protein (Homo sapiens, UniProt P56817); test: Biochemical FRET based assay; conditions: recombinant BACE1 1 μg/ml, 120 min, room temperature, pH 5.0; for IC50: read-out: Biochemical FRET based assay pIC50 (converted)
T1 construct: recombinant BACE1 protein in a final concentration of 1 μg/ml
From the text: Biochemical FRET Based Assay This assay is a Fluorescence Resonance Energy Transfer Assay (FRET) based assay. The substrate for this assay is an APP derived 13 amino acids peptide that contains the 'Swedish' […] mutation of the amyloid precursor protein (APP) β-secretase cleavage site. […] Upon cleavage by BACE1, the fluorophore Mca is separated from the quenching group Dnp, restoring the full fluorescence yield of the donor. The increase in fluorescence is linearly related to the rate of proteolysis (Koike H et al. J Biochem. 1999, 126, 235-42). Briefly in a 384-well format recombinant BACE1 protein in a final concentration of 1 μg/ml is incubated for 120 minutes at room temperature with 10 μm substrate in incubation buffer (40 mM Citrate buffer pH 5.0, 0.04% PEG, 4% DMSO) in the absence or presence of compound. Next the amount of proteolysis is directly measured by fluorescence measurement at T=0 and T=120 (excitation at 320 nm and emission at 405 nm). […] [formula]

T1 sequence (P56817 46-501): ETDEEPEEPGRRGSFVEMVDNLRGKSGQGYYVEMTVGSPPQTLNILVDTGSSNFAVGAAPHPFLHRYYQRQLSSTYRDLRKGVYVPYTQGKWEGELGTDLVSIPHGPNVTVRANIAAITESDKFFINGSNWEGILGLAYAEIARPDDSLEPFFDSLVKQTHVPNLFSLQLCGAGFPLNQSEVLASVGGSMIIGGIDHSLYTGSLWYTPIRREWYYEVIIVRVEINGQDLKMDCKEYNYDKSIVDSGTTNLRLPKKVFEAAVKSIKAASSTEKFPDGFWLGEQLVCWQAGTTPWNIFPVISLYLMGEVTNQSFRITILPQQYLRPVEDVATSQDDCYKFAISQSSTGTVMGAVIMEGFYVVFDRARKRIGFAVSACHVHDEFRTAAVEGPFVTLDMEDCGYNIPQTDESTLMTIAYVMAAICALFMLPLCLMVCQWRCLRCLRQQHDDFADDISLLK

| IC50 [1] [nM] | melting point [°C] | IC50 [4] [nM] | IC50 [5] [nM] | Cellular αlisa assay in SKNBE2 cells Aβ42 pIC50 [1] | Cellular αlisa assay in SKNBE2 cells Aβtotal pIC50 [4] | SMILES | also measured |
| --- | --- | --- | --- | --- | --- | --- | --- |
|  | 89.3 |  |  |  |  | COc1cncc(-c2cccc(C3(C)N=C(N)Cn4nc(C(F)(F)F)cc43)c2)c1 (racemic) [Compound 21, rac-4-[3-(5-methoxypyridin-3-yl)-phenyl]-4-methyl-2-(trifluoromethyl)-4,7-dihydropyrazolo[1,5-a]pyrazin-6-amine] |  |
|  | 175.2 |  |  |  |  | CC1(c2cc(-c3cncc(Cl)c3)ccc2F)N=C(N)Cn2nc(C(F)(F)F)cc21 (racemic) [Compound 24, rac-4-[5-(5-chloropyridin-3-yl)-2-fluorophenyl]-4-methyl-2-(trifluoromethyl)-4,7-dihydropyrazolo[1,5-a]pyrazin-6-amine] |  |
|  | 198 |  |  |  |  | CC1(c2cc(NC(=O)c3ncc(Cl)cc3Cl)ccc2F)N=C(N)Cn2nc(C(F)(F)F)cc21 (racemic) [Compound 27, rac-N-{3-[6-amino-4-methyl-2-(trifluoromethyl)-4,7-dihydropyrazolo[1,5-a]pyrazin-4-yl]-4-fluorophenyl}-3,5-dichloropyridine-2-carboxamide] |  |
|  |  |  | 42.7 | 8.36 | 8.37 | CC1(c2cc(NC(=O)c3ccc(Cl)cn3)ccc2F)N=C(N)Cn2nccc21 (single isomer, unassigned) [Compound 11, (R*)—N-[3-(6-amino-4-methyl-4,7-dihydropyrazolo[1,5-a]pyrazin-4-yl)-4-fluorophenyl]-5-chloropyridine-2-carboxamide] | Aβtotal (% Ctrl)_Mean ([2]; 4 h after administration): 80 % Ctrl; Aβ42 (% Ctrl)_Mean ([3]; 4 h after administration): 71 % Ctrl |
| 5890 |  | 5370 | 7240 |  |  | CC1(c2cc(-c3cncc(Cl)c3)ccc2F)N=C(N)Cn2nc(C(F)(F)F)cc21 (stereo not drawn) [Compound 24, rac-4-[5-(5-chloropyridin-3-yl)-2-fluorophenyl]-4-methyl-2-(trifluoromethyl)-4,7-dihydropyrazolo[1,5-a]pyrazin-6-amine] |  |
| 170 |  | 170 | 145 |  |  | CC1(c2cc(NC(=O)c3ncc(Cl)cc3Cl)ccc2F)N=C(N)Cn2nc(C(F)(F)F)cc21 (stereo not drawn) [Compound 27, rac-N-{3-[6-amino-4-methyl-2-(trifluoromethyl)-4,7-dihydropyrazolo[1,5-a]pyrazin-4-yl]-4-fluorophenyl}-3,5-dichloropyridine-2-carboxamide] |  |
| 25.7 | 272.6 | 20.9 | 309 |  |  | NC1=N[C@@](c2cc(NC(=O)c3ncc(Cl)cc3F)ccc2F)(C2CC2)c2ccnn2C1 [Compound 33, (R)—N-{3-[6-amino-4-cyclopropyl-4,7-dihydropyrazolo[1,5-a]pyrazin-4-yl]-4-fluorophenyl}-5-chloro-3-fluoropyridine-2-carboxamide] |  |
|  |  |  |  | 7.11 | 7.19 | COc1cnc(C(=O)Nc2ccc(F)c(C3(C4CC4)N=C(N)Cn4nccc43)c2)cn1 (centres unmarked) [Compound 34] | Biochemical FRET based assay pIC50 [5]: 6.51 |

Second part, the compound before the results:

| SMILES | IC50 [1] [nM] | melting point [°C] | IC50 [4] [nM] | IC50 [5] [nM] | Cellular αlisa assay in SKNBE2 cells Aβ42 pIC50 [1] | Cellular αlisa assay in SKNBE2 cells Aβtotal pIC50 [4] | also measured |
| --- | --- | --- | --- | --- | --- | --- | --- |
| COc1cncc(-c2cccc(C3(C)N=C(N)Cn4nccc43)c2)c1 (racemic) [Compound 2, rac-4-[3-(5-methoxypyridin-3-yl)-phenyl]-4-methyl-4,7-dihydropyrazolo[1,5-a]pyrazin-6-amine] | 112 | 191.8 | 105 | 1660 |  |  | Aβtotal (% Ctrl)_Mean ([2]; 4 h after administration): 116 % Ctrl; Aβ42 (% Ctrl)_Mean ([3]; 4 h after administration): 109 % Ctrl |
| CC1(c2cc(-c3cncnc3)c(F)cc2F)N=C(N)Cn2nccc21 (racemic) [Compound 4, rac-4-(2,4-difluoro-5-pyrimidin-5-yl-phenyl)-4-methyl-4,7-dihydropyrazolo[1,5-a]pyrazin-6-amine] | 1070 | 207 | 1050 | 8710 |  |  |  |
| CC1(c2cc(NC(=O)c3ccc(Cl)cn3)ccc2F)N=C(N)Cn2nccc21 (single isomer, unassigned) [Compound 10, (S*)—N-[3-(6-Amino-4-methyl-4,7-dihydropyrazolo[1,5-a]pyrazin-4-yl)-4-fluorophenyl]-5-chloropyridine-2-carboxamide] |  | 199 |  | > 30200 | 5.41 | 5.44 |  |
| COc1cccc(-c2cccc([C@@]3(C)N=C(N)Cn4nccc43)c2)c1 [Compound 7, (R)-4-(3′-methoxybiphenyl-3-yl)-4-methyl-4,7-dihydropyrazolo[1,5-a]pyrazin-6-amine] |  | 153.8 |  |  |  |  |  |
| CC1(c2cccc(-c3cc(Cl)cc(Cl)c3)c2)N=C(N)Cn2nccc21 (centres unmarked) [Compound 20] |  |  |  |  | 6.33 | 6.37 | Aβtotal (% Ctrl)_Mean ([2]; 2 h after administration): 80 % Ctrl; Aβ42 (% Ctrl)_Mean ([3]; 2 h after administration): 86 % Ctrl; Biochemical FRET based assay pIC50 [5]: 6.76 |
